# Results reported in patent US20030194450A1, “Method of producing a preparation containing active substances from cannabis” (priority 2002, published 2003).
# Several values for one entry are separate records, joined by “and”; a condition that tells them apart may be missing. Identical values can stand only once.
# Assay: Δ-9-tetrahydrocannabinol content in milk of a dairy cow fed hemp blossoms
# Format: in vivo
# Conditions: dairy cow fed 14 kg/day feed in two rations, 50 g ensiled hemp blossoms per ration; milk samples one week after initiation of feeding plan
# Description: A dairy cow with a medium milk production was fed over a time period of two weeks with a daily feed amount of 14 kg/day, divided up into two rations, 50 g of hemp blossoms having been added to each ration. The hemp blossoms used consisted of the upper part of pistillate hemp plants which were harvested in a way analogous to that employed for harvesting corn. The material was processed by a corn chaff cutter and underwent an ensilage step. The rest of the fodder was normal cattle feed (Total Mix Ratio, TMR) as is commonly provided in agriculture to cows for milk production. The content of Δ-9-tetrahydrocannabinol active substance in milk samples obtained one week after initiation of the feeding plan was determined to be 0.15 mg/l and 0.63 mg/l. The measurements were carried out in an accredited laboratory (Swiss testing STS 017, EN 45001, GMP).
compound,measurement,value
CCCCCc1cc(O)c2c(c1)OC(C)(C)[C@@H]1CCC(C)=C[C@@H]21 [Δ-9-tetrahydrocannabinol],content of Δ-9-tetrahydrocannabinol active substance in milk samples,0.15 mg/L and 0.63 mg/L
